Test results from patent US20240254121A1, “ALKYLAMIDE SUBSTITUTED, ANNULATED IMIDAZOLES AND USE THEREOF AS INSECTICIDES” (Bayer Aktiengesellschaft, priority 2021, published 2024).

Key:
Type in all cases: in vivo
[1] = test system: adult brown dog ticks (Rhipicephalus sanguineus); assay: Rhipicephalus sanguineus in-vitro contact test with adult brown dog ticks; conditions: 1 μg/cm^2 (=100 g/ha), after 48 hours
Experimental: Rhipicephalus sanguineus—In-Vitro Contact Tests with Adult Brown Dog Ticks
(§1) 9 mg compound is solved in 1 mL acetone and diluted with acetone to the desired concentration. 250 μL of the test solution is filled in 25 mL glass test tubes and homogeneously distributed on the inner walls by rotation and tilting on a shaking device (2 h at 30 rpm). With a compound concentration of 900 ppm, an inner surface of 44.7 cm^2 and a homogeneous distribution, a dose of 5 μg/cm^2 is achieved.
After the solvent has evaporated, each test tube is filled with 5-10 adult brown dog ticks (Rhipicephalus sanguineus), closed with a perforated lid and incubated in a lying position at room temperature and relative humidity. After 48 hours efficacy is determined. The ticks are patted on the ground of the tubes and are incubated on a heating plate at 45-50° C. for at most 5 minutes. Immotile or uncoordinated moving ticks, which are not able to escape the heat by climbing upwards, are marked as dead or moribund.
An efficacy of 100% means all ticks are dead or moribund; 0% means no ticks are dead or moribund.

[2] = test system: adult mosquitoes Aedes aegypti strain MONHEIM; assay: Aedes aegypti test (AEDSAE surface treatment & contact assay); conditions: 24 hours after contact, read-out: efficacy (mortality); for mortality at 4 mg/m2: surface concentration 4 mg/m^2, 30 minutes exposure; for mortality at 20 mg/m2: surface concentration 20 mg/m^2, 30 minutes exposure
Experimental: Aedes aegypti Test (AEDSAE Surface Treatment & Contact Assay) • Solvent: Aceton+2000 ppm rapeseed oil methyl ester (RME)
(§2) In order to produce a sufficient, active ingredient containing solution it is necessary to solve the test compound in the solvent-mix (acetone at 2 mg/ml/RME 2000 ppm). This solution is pipetted onto a glazed tile and after evaporation of the acetone, adult mosquitoes of the species Aedes aegypti strain MONHEIM are placed onto the dried surface. The exposure time is 30 minutes. Mortality in percent (%) is determined 24 hours after contact of the insects to the treated surface. 100% mortality means that all tested insects are dead, whereas 0% means that no insect died.

[3] = test system: cattle tick larvae (Rhipicephalus microplus); assay: Rhipicephalus (Boophilus) microplus in-vitro contact test, larval cattle tick (strain Parkhurst, resistant against synthetic pyrethroids); conditions: after 48 hours, read-out: efficacy (larvae dead or moribund); for pest or weed control at 1 µg/cm2, 100 g/ha: 1 μg/cm^2 (=100 g/ha)
Experimental: Rhipicephalus (Boophilus) Microplus—In-Vitro Contact Tests Larval Cattle Tick (Strain Parkhurst, Resistant Against Synthetic Pyrethroids)
as §1
After the solvent has evaporated, each test tube is filled with 20-50 cattle tick larvae (Rhipicephalus microplus), closed with a perforated lid and incubated in a horizontal position at 85% relative humidity and 27° C. in an incubator. After 48 hours efficacy is determined. The larvae are patted on the ground of the tubes and negative geotactic behavior is recorded.
An efficacy of 100% means all larvae are dead or moribund; 0% means no larvae are dead or moribund.

[4] = test system: fall armyworm larvae (Spodoptera frugiperda); assay: Spodoptera frugiperda spray test; conditions: 168 h, maize leaf sections, after 7 days
Experimental: Spodoptera frugiperda—Spray Test • Solvent: 78.0 parts by weight acetone • 1.5 parts by weight dimethylformamide • Emulsifier: alkylarylpolyglycol ether
(§3) To produce a suitable preparation of active compound, 1 part by weight of active compound is mixed with the stated amount of solvents and is diluted with water, containing an emulsifier concentration of 1000 ppm, to the desired concentration. Further test concentrations are prepared by dilution with emulsifier containing water.
Maize (Zea mays) leaf sections are sprayed with a preparation of the active ingredient of the desired concentration. Once dry, the leaf sections are infested with fall armyworm larvae (Spodoptera frugiperda).
After 7 days mortality in % is determined. 100% means all caterpillars have been killed and 0% means none of the caterpillars have been killed.

[5] = test system: green peach aphid (Myzus persicae); assay: Myzus persicae spray test; conditions: foliar, 120 h, Chinese cabbage leaf disks, after 5 days
Experimental: Myzus persicae—Spray Test • Solvent: 78.0 parts by weight acetone • 1.5 parts by weight dimethylformamide • Emulsifier: alkylarylpolyglycol ether
as §3
Chinese cabbage (Brassica pekinensis) leaf disks infected with all instars of the green peach aphid (Myzus persicae), are sprayed with a preparation of the active ingredient of the desired concentration.
(§4) After 5 days mortality in % is determined. 100% means all aphids have been killed and 0% means none of the aphids have been killed.

[6] = test system: adult flies Musca domestica strain WHO-N; assay: Musca domestica test (MUSCDO surface treatment & contact assay); conditions: 24 hours after contact, read-out: efficacy (mortality); for mortality at 20 mg/m2: surface concentration 20 mg/m^2, 30 minutes exposure; for mortality at 4 mg/m2: surface concentration 4 mg/m^2, 30 minutes exposure
Experimental: Musca domestica Test (MUSCDO Surface Treatment & Contact Assay) • Solvent: Aceton+2000 ppm rapeseed oil methyl ester (RME)
as §2, with “flies” for “mosquitoes”, “Musca domestica” for “Aedes aegypti”, “WHO-N” for “MONHEIM”

[7] = test system: green peach aphid (Myzus persicae); assay: Myzus persicae oral test; conditions: 120 h, after 5 days
Experimental: Myzus persicae—Oral Test • Solvent: 100 parts by weight acetone
(§5) To produce a suitable preparation of active compound, 1 part by weight of active compound is mixed with the stated amount of solvent, and the concentrate is diluted with water to the desired concentration.
(§6) 50 μL compound solution is filled in microtiter plates and 150 μL IPL41 insect medium (33%+15% sugar) is added to obtain a total volume of 200 μL per well. Afterwards the plates are sealed with parafilm through which a mixed population of the green peach aphid (Myzus persicae) can suck on the compound preparation.
as §4

[8] = test system: cotton aphid (Aphis gossypii); assay: Aphis gossypii oral test; conditions: 120 h, after 5 days
Experimental: Aphis gossypii—Oral Test • Solvent: 100 Parts by Weight Acetone
as §5
as §6, with “cotton” for “green peach”, “(Aphis gossypii)” for “(Myzus persicae)”
as §4

[9] = test system: larvae of the banded cucumber beetle (Diabrotica balteata); assay: Diabrotica balteata spray test; conditions: 168 h, 100 g/ha (=32 μg/well), wheat seeds, after 7 days, read-out: efficacy (seedling growth)
Experimental: Diabrotica Balteata—Spray Test
• Solvent: 78.0 Parts by Weight of Acetone • 1.5 parts by weight of dimethylformamide • Emulsifier: Alkylarylpolyglycol Ether
as §3, with “solvent,” for “solvents”, “and the concentrate” for “and”
Soaked wheat seeds (Triticum aestivum) are placed in a multiple well plate filled with agar and some water and are incubated for 1 day to germinate (5 seeds per well). The germinated wheat seeds are sprayed with a test solution containing the desired concentration of the active ingredient. Afterwards each unit is infected with 10-20 larvae of the banded cucumber beetle (Diabrotica balteata).
After 7 days efficacy in % is determined. 100% means all the seedlings have grown up like in the untreated, uninfected control; 0% means none of the seedlings have grown.

[10] = test system: brown planthopper (Nilaparvata lugens); assay: Nilaparvata lugens spray test; conditions: 96 h, rice plants, after 4 days
Experimental: Nilaparvata lugens—Spray Test • Solvent: 78.0 parts by weight of acetone • 1.5 parts by weight of dimethylformamide • Emulsifier: alkylarylpolyglycol ether
as §3
Rice plants (Oryza sativa) are sprayed with a preparation of the active ingredient of the desired concentration and the plants are infested with the brown planthopper (Nilaparvata lugens).
After 4 days mortality in % is determined. 100% means all planthoppers have been killed and 0% means none of the planthoppers have been killed.

[11] = test system: larvae of the southern green stink bug (Nezara viridula); assay: Nezara viridula spray test; conditions: 96 h, barley plants, after 4 days
Experimental: Nezara viridula—Spray Test • Solvent: 78.0 parts by weight of acetone • 1.5 parts by weight of dimethylformamide • Emulsifier: alkylarylpolyglycol ether
as §3, with “solvent,” for “solvents”, “and the concentrate” for “and”
Barley plants (Hordeum vulgare) are sprayed with a test solution containing the desired concentration of the active ingredient and are infested with larvae of the southern green stink bug (Nezara viridula).
After 4 days mortality in % is determined. 100% means all the stink bugs have been killed; 0% means none of the stink bugs have been killed.

[12] = test system: adult engorged female ticks (Rhipicephalus microplus); assay: Rhipicephalus (Boophilus) microplus injection test; conditions: 4 μg/tick, egg deposition after 7 days
Experimental: Rhipicephalus (Boophilus) Microplus—Injection Test
• Solvent: Dimethyl Sulfoxide
To produce a suitable preparation of active compound, 10 mg of active compound are dissolved in 0.5 mL solvent, and the concentrate is diluted with solvent to the desired concentration.
Five adult engorged female ticks (Rhipicephalus microplus) are injected with 1 μL compound solution into the abdomen. The ticks are transferred into replica plates and incubated in a climate chamber.
After 7 days egg deposition of fertile eggs is monitored. Eggs where fertility is not visible are stored in a climate chamber till hatching after about 42 days. An efficacy of 100% means all eggs are infertile; 0% means all eggs are fertile.

[13] = test system: adult mosquitoes Culex quinquefasciatus strain P00; assay: Culex quinquefasciatus test (CULXFA surface treatment & contact assay); conditions: surface concentration 20 mg/m^2, 30 minutes exposure, 24 hours after contact, read-out: efficacy (mortality)
Experimental: Culex quinquefasciatus Test (CULXFA Surface Treatment & Contact Assay) • Solvent: Aceton+2000 ppm rapeseed oil methyl ester (RME)
as §2, with “2,000” for “2000”, “Culex quinquefasciatus” for “Aedes aegypti”, “P00” for “MONHEIM”

C[C@H](NC(=O)c1cc(C(F)F)n(C)n1)c1nc2cccnc2n1-c1ccc(C#N)cn1 [Example I-17]
efficacy (ticks dead or moribund) [1]: 100%

C[C@H](NC(=O)c1cc(C#N)cc(C2(C#N)CC2)c1)c1nc2cccnc2n1-c1ccc(C#N)cn1 [Example I-6]
mortality at 4 mg/m2 [2]: 80 to 100%
pest or weed control at 1 µg/cm2, 100 g/ha [3]: 90%
mortality at 100 g/ha [4]: 100%
mortality at 100 g/ha [5]: 90%

CC(NC(=O)c1cc(OC(F)(F)F)cc(OC(F)(F)F)c1)c1nc2cccnc2n1-c1ccc(Cl)cn1 (stereo not drawn) [Example I-9]
pest or weed control at 1 µg/cm2, 100 g/ha [3]: 80%
mortality at 100 g/ha [4]: 100%
mortality at 500 g/ha ([5]; 500 g/ha): 90%
mortality at 20 mg/m2 [6]: 80 to 100%
mortality at 20 ppm [7]: 100%
mortality at 100 ppm [8]: 100%
pest or weed control at 32 µg/disc, 100 g/ha [9]: 100%

C[C@H](NC(=O)c1cc(OC(F)(F)F)cc(S(C)(=O)=O)c1)c1nc2cccnc2n1-c1ccc(C#N)cn1 [Example I-4]
mortality at 4 mg/m2 [2]: 80 to 100%
mortality at 500 g/ha [10]: 90%
mortality at 500 g/ha [11]: 100%
mortality at 100 g/ha [4]: 100%
mortality at 20 ppm [7]: 100%
mortality at 100 ppm [8]: 100%
pest or weed control at 32 µg/disc, 100 g/ha [9]: 100%

CC(NC(=O)c1cc(C(F)(F)F)cc(C(F)(F)F)c1)c1nc2cccnc2n1-c1ccc(C(=O)N(C)C)cn1 (stereo not drawn) [Example I-26, 6-(2-{1-[3,5-bis(trifluoromethyl)benzamido]ethyl}-3H-imidazo[4,5-b]pyridin-3-yl)-N,N-dimethylnicotinamide]
mortality at 20 mg/m2 [2]: 80 to 100%
mortality at 500 g/ha [10]: 100%
mortality at 100 g/ha [5]: 90%

C[C@H](NC(=O)c1cc(OC(F)(F)F)cc(C2CC2)c1)c1nc2cccnc2n1-c1ccc(C#N)cn1 [Example I-2]
mortality at 20 mg/m2 [2]: 80 to 100%
pest or weed control at 1 µg/cm2, 100 g/ha [3]: 100%
pest or weed control at 5 µg/cm2, 500 g/ha ([3]; 5 μg/cm^2 (=500 g/ha)): 100%
mortality at 100 g/ha [4]: 100%
efficacy (infertile eggs) [12]: 100%
mortality at 20 mg/m2 [6]: 80 to 100%

CC(NC(=O)c1cc(C(F)(F)F)cc(C(F)(F)F)c1)c1nc2cccnc2n1-c1ccc(Cl)cn1 (stereo not drawn) [Example I-8]
mortality at 20 mg/m2 [2]: 80 to 100%
efficacy (ticks dead or moribund) [1]: 80%
pest or weed control at 1 µg/cm2, 100 g/ha [3]: 100%
mortality at 100 g/ha [4]: 100%
mortality at 20 mg/m2 [6]: 80 to 100%
pest or weed control at 32 µg/disc, 100 g/ha [9]: 100%

CC(NC(=O)c1cc(OC(F)F)cc(OC(F)F)c1)c1nc2cccnc2n1-c1ccc(C#N)cn1 (stereo not drawn) [Example I-40]
mortality at 4 mg/m2 [2]: 80 to 100%
mortality at 20 mg/m2 [2]: 80 to 100%
mortality at 500 g/ha [10]: 90%
mortality at 100 g/ha [4]: 100%
mortality at 4 mg/m2 [6]: 80 to 100%
mortality at 20 mg/m2 [6]: 80 to 100%
pest or weed control at 32 µg/disc, 100 g/ha [9]: 100%

CC(NC(=O)c1cc(OC(F)(F)F)cc(C2CC2)c1)c1nc2cccnc2n1-c1ccc(Cl)cn1 (stereo not drawn) [Example I-13]
efficacy (ticks dead or moribund) [1]: 80%
pest or weed control at 1 µg/cm2, 100 g/ha [3]: 90%

CC(NC(=O)c1cc(C(F)(F)F)cc(C(F)(F)F)c1)c1nc2cccnc2n1-c1ccc(C#N)cn1 (stereo not drawn) [Example I-35]
mortality at 4 mg/m2 [2]: 80 to 100%
mortality at 20 mg/m2 [2]: 80 to 100%
mortality at 20 mg/m2 [13]: 80 to 100%
mortality at 100 g/ha [4]: 100%
mortality at 100 g/ha [5]: 100%
mortality at 4 mg/m2 [6]: 80 to 100%
mortality at 20 mg/m2 [6]: 80 to 100%
pest or weed control at 32 µg/disc, 100 g/ha [9]: 100%
